ChEMBL document CHEMBL3525929, “Paraoxonase 1 as a major bioactivating hydrolase for olmesartan medoxomil in human blood circulation: molecular identification and contribution to plasma metabolism” (Drug Metab Dispos, 2012)
Each block holds one compound with its values, some of them ahead of it.

What was measured:
[1] = Prodrug conversion in human serum LDL assessed as distribution of hydrolyzing activity measured per ml of serum at 10 uM in presence of Tris-HCl/Ca2+; type: ADME, cell-free
[2] = Prodrug conversion in recombinant human PON1 192QQ mutant expressed in FreeStyle 293-F cells assessed as hydrolysis measured per mg of protein at 10 uM in presence of Ca2+; type: ADME, cell-based
[3] = Prodrug conversion in recombinant human PON1 192RR mutant expressed in FreeStyle 293-F cells measured per mg of protein by single-enzyme Michaelis-Menten model; type: ADME, cell-based
[4] = Prodrug conversion in recombinant human PON1 192QQ mutant expressed in FreeStyle 293-F cells assessed as hydrolysis measured per mg of protein at 10 uM in presence of Zn2+; type: ADME, cell-based
[5] = Prodrug conversion in human serum LPDS assessed as conversion velocity per mg of protein at 10 uM in presence of KPB; type: ADME, cell-free
[6] = Ratio of Vmax to Km in recombinant human PON1 192RR mutant expressed in FreeStyle 293-F cells assessed as hydrolysis measured per mg of protein by single-enzyme Michaelis-Menten model; type: ADME, cell-based
[7] = Prodrug conversion in recombinant human PON1 192QQ mutant expressed in FreeStyle 293-F cells assessed as hydrolysis measured per mg of protein at 10 uM in presence of Mg2+; type: ADME, cell-based
Plasma [8] = assay: Prodrug conversion in human plasma assessed as hydrolysis measured per mg of protein at 10 uM in presence of Ca2+; type: ADME, cell-free
Albumin [9] = biological target: T1, Albumin (Homo sapiens, UniProt P02768); assay: Prodrug conversion in human serum albumin assessed as hydrolysis measured per mg of protein at 10 uM in presence of Mg2+; type: ADME
Plasma [10] = assay: Prodrug conversion in human plasma assessed as hydrolysis measured per mg of protein at 10 uM in presence of Mg2+; type: ADME, cell-free
Plasma [11] = assay: Ratio of Vmax to Km in human plasma assessed as hydrolysis measured per mg of protein by single-enzyme Michaelis-Menten model; type: ADME
Albumin [12] = biological target: T1, Albumin; assay: Prodrug conversion in human serum albumin assessed as hydrolysis measured per mg of protein at 10 uM in presence of Ca2+; type: ADME
[13] = Ratio of Vmax to Km in recombinant human PON1 192QQ mutant expressed in FreeStyle 293-F cells assessed as hydrolysis measured per mg of protein by single-enzyme Michaelis-Menten model; type: ADME, cell-based
[14] = Prodrug conversion in recombinant human PON1 192QQ mutant expressed in FreeStyle 293-F cells assessed as hydrolysis by single-enzyme Michaelis-Menten model; type: ADME, cell-based
[15] = Prodrug conversion in human serum VLDL and chylomicron assessed as conversion velocity at 10 uM measured per mg of protein in presence of Tris-HCl/Ca2+; type: ADME, cell-free
Plasma [16] = assay: Prodrug conversion in human plasma assessed as hydrolysis by single-enzyme Michaelis-Menten model; type: ADME, cell-free
[17] = Prodrug conversion in recombinant human PON1 192RR mutant expressed in FreeStyle 293-F cells assessed as hydrolysis measured per mg of protein at 10 uM in presence of Mg2+; type: ADME, cell-based
[18] = Prodrug conversion in human serum LPDS assessed as distribution of hydrolyzing activity measured per ml of serum at 10 uM in presence of KPB; type: ADME, cell-free
[19] = Prodrug conversion in recombinant human PON1 192QQ mutant expressed in FreeStyle 293-F cells measured per mg of protein by single-enzyme Michaelis-Menten model; type: ADME, cell-based
[20] = Prodrug conversion in human serum LPDS assessed as distribution of hydrolyzing activity measured per ml of serum at 10 uM in presence of Tris-HCl/Ca2+; type: ADME, cell-free
Plasma [21] = assay: Prodrug conversion in human plasma assessed as hydrolysis measured per mg of protein by single-enzyme Michaelis-Menten model; type: ADME, cell-free
[22] = Prodrug conversion in human serum LPDS assessed as conversion velocity per mg of protein at 10 uM in presence of Tris-HCl/Ca2+; type: ADME, cell-free
[23] = Prodrug conversion in recombinant human PON1 192RR mutant expressed in FreeStyle 293-F cells assessed as hydrolysis measured per mg of protein at 10 uM in presence of Ca2+; type: ADME, cell-based
Albumin [24] = biological target: T1, Albumin; assay: Ratio of Vmax to Km in human serum albumin assessed as hydrolysis measured per mg of protein by single-enzyme Michaelis-Menten model; type: ADME
[25] = Prodrug conversion in human serum HDL assessed as distribution of hydrolyzing activity measured per ml of serum at 10 uM in presence of Tris-HCl/Ca2+; type: ADME, cell-free
[26] = Prodrug conversion in human serum HDL assessed as conversion velocity per mg of protein at 10 uM in presence of Tris-HCl/Ca2+; type: ADME, cell-free
[27] = Prodrug conversion in human serum LDL assessed as conversion velocity at 10 uM measured per mg of protein in presence of Tris-HCl/Ca2+; type: ADME, cell-free
[28] = Prodrug conversion in human serum VLDL and chylomicron assessed as distribution of hydrolyzing activity measured per ml of serum at 10 uM in presence of Tris-HCl/Ca2+; type: ADME, cell-free
Plasma [29] = assay: Prodrug conversion in human plasma assessed as hydrolysis measured per mg of protein at 10 uM in presence of Zn2+; type: ADME, cell-free
[30] = Prodrug conversion in recombinant human PON1 192RR mutant expressed in FreeStyle 293-F cells assessed as hydrolysis measured per mg of protein at 10 uM in presence of Zn2+; type: ADME, cell-based
Plasma [31] = assay: Prodrug conversion in human plasma assessed as hydrolysis in presence of 4 fold anti-PON1 IgG/plasma ratio; type: ADME
[32] = Prodrug conversion in recombinant human PON1 192RR mutant expressed in FreeStyle 293-F cells assessed as hydrolysis by single-enzyme Michaelis-Menten model; type: ADME, cell-based
Albumin [33] = biological target: T1, Albumin; assay: Prodrug conversion in human serum albumin assessed as hydrolysis measured per mg of protein at 10 uM in presence of Zn2+; type: ADME
[34] = system: CCCc1nc(C(C)(C)O)c(C(=O)OCc2oc(=O)oc2C)n1Cc1ccc(-c2ccccc2-c2nnn[nH]2)cc1; assay: Prodrug conversion in human serum albumin assessed as hydrolysis by single-enzyme Michaelis-Menten model; type: ADME

T1 sequence (P02768 whole entry): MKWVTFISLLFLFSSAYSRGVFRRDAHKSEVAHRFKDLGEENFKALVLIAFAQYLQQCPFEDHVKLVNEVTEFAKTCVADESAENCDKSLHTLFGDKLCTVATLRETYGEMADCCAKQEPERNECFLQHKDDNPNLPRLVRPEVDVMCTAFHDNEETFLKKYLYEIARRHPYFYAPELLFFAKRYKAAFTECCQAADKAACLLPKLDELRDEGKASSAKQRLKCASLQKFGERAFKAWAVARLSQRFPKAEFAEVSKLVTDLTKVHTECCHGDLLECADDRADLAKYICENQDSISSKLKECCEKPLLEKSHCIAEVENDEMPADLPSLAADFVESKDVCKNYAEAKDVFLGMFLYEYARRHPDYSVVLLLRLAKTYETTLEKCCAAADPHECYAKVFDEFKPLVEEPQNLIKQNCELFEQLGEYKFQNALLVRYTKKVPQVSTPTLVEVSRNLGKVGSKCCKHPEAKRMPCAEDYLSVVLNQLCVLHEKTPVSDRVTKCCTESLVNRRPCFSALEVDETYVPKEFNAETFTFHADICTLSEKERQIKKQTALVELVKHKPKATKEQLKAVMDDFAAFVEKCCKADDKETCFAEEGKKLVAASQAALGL

- Activity [1]: 4.07 nmol/min
- Activity [2]: 9.5 nmol/min
- Vmax [3]: 140 nmol/min
- Activity [4]: 0.75 nmol/min
- Activity [5]: 0.131 nmol/min
- Vmax/Km [6]: 1.37 mL/min
- Activity [7]: 0.65 nmol/min
- Activity (Plasma [8]): 7.91 nmol/min
- Activity (Albumin [9]): 0.0106 nmol/min
- Activity (Plasma [10]): 0.266 nmol/min
- Vmax/Km (Plasma [11]): 2.77 mL/min
- Activity (Albumin [12]): 0.0102 nmol/min
- Vmax/Km [13]: 0.79 mL/min
- Km [14]: 157 µM
- Activity [15]: 13.9 nmol/min
- Km (Plasma [16]): 6.71 µM
- Activity [17]: 2.25 nmol/min
- Activity [18]: 9.04 nmol/min
- Vmax [19]: 124 nmol/min
- Activity [20]: 35.6 nmol/min
- Vmax (Plasma [21]): 18.6 nmol/min
- Activity [22]: 0.516 nmol/min
- Activity [23]: 20.6 nmol/min
- Vmax/Km (Albumin [24]): 0.00737 mL/min
- Activity [25]: 596 nmol/min
- Activity [26]: 277 nmol/min
- Activity [27]: 12.6 nmol/min
- Activity [28]: 2.42 nmol/min
- Activity (Plasma [29]): 0.0918 nmol/min
- Activity [30]: 1.75 nmol/min
- Drug metabolism (Plasma [31]): metabolite_not_detected
- Km [32]: 102 µM
- Activity (Albumin [33]): 0.0164 nmol/min
Compound: CCCc1nc(C(C)(C)O)c(C(=O)OCc2oc(=O)oc2C)n1Cc1ccc(-c2ccccc2-c2nnn[nH]2)cc1 [OLMESARTAN MEDOXOMIL]

Compound: Albumin (Homo sapiens)
- Km [34]: 354 µM
- Vmax [34]: 0.00261 µmol/min
